The record followed here is US20250049948A1, “NOVEL IONIZABLE LIPIDS AND LIPID NANOPARTICLES AND METHODS OF USING THE SAME” (Sail Biomedicines, Inc., priority 2021, published 2025).

In data set [1] the test system is Balb/c mice. Briefly: In-vivo bioluminescent imaging of LNP compositions (Example 6). The settings on record: for Bioluminescence (IV) Liver / Bioluminescence (IV) Lung / Bioluminescence (IV) Spleen / Bioluminescence (IV) Whole Body: 4-6 hours post-dose; for Spleen: Liver Ratio: intravenous.
A short description of data set [2]: mRNA encapsulation efficiency, Quant-iT RiboGreen RNA Assay. The format is physicochemical. How it is done: (§1) For each LNP composition, the lipid mix and mRNA solution were mixed at a 1:3 ratio by volume, respectively, on a NanoAssemblr Ignite (Precision Nanosystems) at a total flow rate of 9 mL/min. The resulting compositions were then loaded into Slide-A-Lyzer G2 dialysis cassettes (10 k MWCO) and dialyzed in 200 times sample volume of 1×PBS for 2 hours at room temperature with gentle stirring. The PBS was refreshed, and the compositions were further dialyzed for at least 14 hours at 4° C. with gentle stirring. The dialyzed compositions were then collected and concentrated by centrifugation at 3000×g using Amicon Ultra centrifugation filters (100 k MWCO). The concentrated particles were characterized for size, polydispersity, and particle concentration using Zetasizer Ultra (Malvern Panalytical) and for mRNA encapsulation efficiency using Quant-iT RiboGreen RNA Assay Kit (ThermoFisher Scientific).

A short description of data set [3]: LNP size and polydispersity, Zetasizer Ultra. In kind it is physicochemical. How it is done:
as §1

Data set [4] in a line: Apparent LNP pKa, TNS assay. The format is physicochemical. Particulars: LNP with FLUC/EPO 1:1 mRNA. How it is done: For pKa measurement, a […] assay was conducted according to those described in Sabnis et al., Molecular Therapy, 26(6):1509-19), which is incorporated herein by reference in its entirety. Briefly, 20 buffers (10 mM sodium phosphate, 10 mM sodium borate, 10 mM sodium citrate, and 150 mM sodium chloride, in distilled Water) of unique pH values ranging from 3.0-12.0 were prepared using 1M sodium hydroxide and 1M hydrochloric acid. 3.25 μL of a LNP composition (0.04 mg/mL mRNA, in PBS) was incubated with 2 μL of TNS reagent (0.3 mM, in DMSO) and 90 μL of buffer for each pH value (described above) in a 96-well black-walled plate. Each pH condition was performed in triplicate wells. The TNS fluorescence was measured using a Biotek Cytation Plate reader at excitation/emission wavelengths of 321/445 nm. The fluorescence values were then plotted and fit using a 4-parameter sigmoid curve. From the fit, the pH value yielding the half-maximal fluorescence was calculated and reported as the apparent LNP pKa value.

In data set [5] the test system is Balb/c mice. Put plainly: EPO levels in plasma, EPO MSD kit (Example 6). In kind it is in vivo. The settings on record: mRNA dose 5 μg FLUC + 5 μg EPO, intravenous.
[6] abbreviates: mRNA dose 5 μg FLUC (CRE/FLUC 1:1 LNP).

Turning to `CCCCCCCCC(CCCCCC)C(=O)OCCCCCCN(CCCCCCOC(=O)C(CCCCCC)CCCCCCCC)C(=O)CCN1CCCC1` (stereo not drawn) [Compound 2215, ((3-(pyrrolidin-1-yl)propanoyl)azanediyl)bis (hexane-6,1-diyl) bis(2-hexyldecanoate)], in the data set on Balb/c mice [1] (mRNA dose 5 μg FLUC + 5 μg EPO), the “Bioluminescence (IV) Liver” value worked out at 2.2E + 06, the “Bioluminescence (IV) Lung” value is reported as 6.5E + 04, the “Bioluminescence (IV) Spleen” value is 6.6E + 05 and the “Bioluminescence (IV) Whole Body” value is reported as 3.2E + 07. In addition, the “Spleen: Liver Ratio” value with Balb/c mice [1] (mRNA dose 5 μg FLUC + 5 μg EPO) was found to be 0.449. Also, in data set [2] (LNP with FLUC/EPO 1:1 mRNA), the “% EE” value is listed as 96.3%. Besides, in data set [3] (LNP with FLUC/EPO 1:1 mRNA), the PDI amounted to 0.1 and the “Size (nm)” value was 80.18 nm. Moreover, the “pKa (TNS)” value in data set [4] was 7.12.

Regarding `CCCCCCC(CCCCCC)CCCOC(=O)CCCCCN(CCCCCC(=O)OCCCC(CCCCCC)CCCCCC)CCCCN(C)C` [Compound 2131, bis(4-hexyldecyl) 6,6′-((4-(dimethylamino)butyl)azanediyl) dihexanoate], in the data set with Balb/c mice [1] (setting [6]), the “Bioluminescence (IV) Liver” value is recorded as 1.3E + 05, the “Bioluminescence (IV) Lung” value came to 2.4E + 03, the “Bioluminescence (IV) Spleen” value stood at 9.5E + 03 and the “Bioluminescence (IV) Whole Body” value came to 1.2E + 04. In addition, in the data set on Balb/c mice [1] (setting [6]), the “Spleen: Liver Ratio” value is on record as 0.076. Further, in data set [2] (LNP with CRE/FLUC 1:1 mRNA), the “% EE” value stood at 97.1%. In data set [3] (LNP with CRE/FLUC 1:1 mRNA), the PDI is 0.13 and the “Size (nm)” value amounted to 71.2 nm.

With `CCCCCC(CCCCC)CCCOC(=O)CCCCCCCN(CCCCCCCC(=O)OCCCC(CCCCC)CCCCC)CCOCCOCCN(C)C` [Compound 2144, 4-pentylnonyl 2-methyl-11-(8-oxo-8-((4-pentylnonyl)oxy)octyl)-5,8-dioxa-2,11-diazanonadecan-19-oate], in the data set on Balb/c mice [1] (setting [6]), the “Bioluminescence (IV) Liver” value is reported as 7.4E + 04, the “Bioluminescence (IV) Lung” value came out at 1.2E + 03, the “Bioluminescence (IV) Spleen” value was 3.0E + 04 and the “Bioluminescence (IV) Whole Body” value was 7.1E + 03. Moreover, the “Spleen: Liver Ratio” value in the data set on Balb/c mice [1] (setting [6]) is recorded as 0.401. For the same compound, the “% EE” value in data set [2] (LNP with CRE/FLUC 1:1 mRNA) was 96.8%. Moreover, the “% EE” value in data set [2] (LNP with EGFP mRNA) amounted to 98.3%. In data set [3] (LNP with CRE/FLUC 1:1 mRNA), the PDI is listed as 0.26 and the “Size (nm)” value turned out to be 78.0 nm. Besides, in data set [3] (LNP with EGFP mRNA), the PDI turned out to be 0.29 and the “Size (nm)” value is 73.5 nm.

Regarding `CCCCCCCCC(CCCCCC)C(=O)OCCCCCCN(CCCCCCOC(=O)C(CCCCCC)CCCCCCCC)CCOCCOCCN(C)C` (stereo not drawn) [Compound 2216, 11-(6-((2-hexyldecanoyl)oxy)hexyl)-2-methyl-5,8-dioxa-2,11-diazaheptadecan-17-yl 2-hexyldecanoate], in the data set with Balb/c mice [1] (mRNA dose 5 μg FLUC + 5 μg EPO), the “Bioluminescence (IV) Liver” value is 3.2E + 05, the “Bioluminescence (IV) Lung” value is 9.0E + 03, the “Bioluminescence (IV) Spleen” value is 3.8E + 05 and the “Bioluminescence (IV) Whole Body” value worked out at 1.5E + 06. Besides, the “Spleen: Liver Ratio” value with Balb/c mice [1] (mRNA dose 5 μg FLUC + 5 μg EPO) is recorded as 1.539. Further, the “% EE” value in data set [2] (LNP with FLUC/EPO 1:1 mRNA) was 96.8%. In data set [3] (LNP with FLUC/EPO 1:1 mRNA), the PDI stood at 0.11 and the “Size (nm)” value was 88.81 nm. Further, the “pKa (TNS)” value in data set [4] is reported as 7.

As for `CCCCCCC(CCCCCC)CCCOC(=O)CCCCCCCN(CCCCCCCC(=O)OCCCC(CCCCCC)CCCCCC)C(=O)CCN1CCCC1` [Compound 2142, bis(4-hexyldecyl) 8,8′-((3-(pyrrolidin-1-yl)propanoyl)azanediyl) dioctanoate], in the data set on Balb/c mice [1] (mRNA dose 5 μg FLUC + 5 μg EPO), the “Bioluminescence (IV) Liver” value is given as 2.4E + 05, the “Bioluminescence (IV) Lung” value worked out at 2.0E + 05, the “Bioluminescence (IV) Spleen” value worked out at 5.6E + 05 and the “Bioluminescence (IV) Whole Body” value is recorded as 7.8E + 05. Also, in the data set with Balb/c mice [1] (mRNA dose 5 μg FLUC + 5 μg EPO), the “Spleen: Liver Ratio” value is recorded as 2.758. For the same compound, in data set [2] (LNP with FLUC/EPO 1:1 mRNA), the “% EE” value was found to be 96.7%. Besides, the hEPO with Balb/c mice [5] came out at 7.3E + 03. Besides, in data set [3] (LNP with FLUC/EPO 1:1 mRNA), the PDI is given as 0.06 and the “Size (nm)” value is given as 69.2 nm.

For the compound `CCCCCCC(CCCCCC)CCCOC(=O)CCCCCN(CCCCCC(=O)OCCCC(CCCCCC)CCCCCC)CCC(O)CN(C)C` (stereo not drawn) [Compound 2140, bis(4-hexyldecyl) 6.6′-((4-(dimethylamino)-3-hydroxybutyl)azanediyl)dihexanoate], in the data set with Balb/c mice [1] (setting [6]), the “Bioluminescence (IV) Liver” value was 1.6E + 03, the “Bioluminescence (IV) Lung” value worked out at 5.3E + 03, the “Bioluminescence (IV) Spleen” value turned out to be 1.2E + 05 and the “Bioluminescence (IV) Whole Body” value amounted to 4.3E + 04. In addition, the “Spleen: Liver Ratio” value in the data set on Balb/c mice [1] (setting [6]) is 76.18. Moreover, the “% EE” value in data set [2] (LNP with CRE/FLUC 1:1 mRNA) was 96.9%. Besides, in data set [3] (LNP with CRE/FLUC 1:1 mRNA), the PDI was found to be 0.16 and the “Size (nm)” value is given as 86.9 nm.
